Assay results published in patent US20090297638A1.

How the values were obtained:
human ERβ = target: T1, human ERβ (Homo sapiens, UniProt Q92731); test: ERE-tk-Luc luciferase assay in U2OS osteosarcoma cells, ERβ; type: cell-based; settings: co-administration with the extract (Herb 16)
T1 construct: expressed in transfected cells; host or cells: U2OS (human osteosarcoma)
Protocol: Preparation of Anemarrhena Asphodeloides Bge. from the Liliaceae Family: Samples of Anemarrhena asphodeloides Bge. from the Liliaceae Family were ground to fine powder using a commercial electric herb grinder; 5 grams were weighed and extracted in a) 50 ml of 100% EtOH or b) 50 ml of distilled H2O was simmered at 75° Celsius for 45 minutes. The extracts (a and b) were than decanted and only the soluble material was used.

TNF-RE tkLuc = TNF-RE tkLuc reporter, effect of antiestrogens (ER subtype not given); type: cell-based, human; settings: for effect on the repression induced by E2: TNF-RE tkLuc, with E2; for activation of TNF-RE tkLuc: antiestrogens, in contrast to E2
Excerpt: Plasmid Construction. […] ERβmutants were created with QuikChange site-directed mutagenesis kits (Stratagene), by using oligonucleotides containing the mutation. The mutants were sequenced with Sequenase kits (Amersham Pharmacia) to verify the presence of the mutation.

[1] = five years of therapy; cited from earlier work
[2] = women at high risk for breast cancer; cited from earlier work

T1 sequence (Q92731 whole entry): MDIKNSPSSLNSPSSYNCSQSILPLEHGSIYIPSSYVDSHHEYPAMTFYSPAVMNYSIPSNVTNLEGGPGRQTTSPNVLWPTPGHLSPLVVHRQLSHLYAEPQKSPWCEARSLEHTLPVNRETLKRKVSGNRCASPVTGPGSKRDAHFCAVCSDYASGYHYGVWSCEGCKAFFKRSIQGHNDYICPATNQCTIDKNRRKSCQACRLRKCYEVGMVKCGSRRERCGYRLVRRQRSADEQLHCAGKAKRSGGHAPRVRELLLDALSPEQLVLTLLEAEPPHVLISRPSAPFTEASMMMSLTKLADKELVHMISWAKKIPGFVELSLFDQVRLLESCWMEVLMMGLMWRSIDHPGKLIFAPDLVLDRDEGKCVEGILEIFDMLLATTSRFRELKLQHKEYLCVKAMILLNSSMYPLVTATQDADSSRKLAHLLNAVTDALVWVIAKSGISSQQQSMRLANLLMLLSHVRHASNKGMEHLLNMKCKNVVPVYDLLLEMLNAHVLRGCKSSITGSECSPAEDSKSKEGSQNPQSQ

| Compound | effect on extract-stimulated ERE-tk-Luc expression (human ERβ; FIG. 5) | effect on extract-stimulated ERE-tk-Luc expression (human ERβ; FIG. 5, listed as ICI) | effect on the repression induced by E2 (TNF-RE tkLuc) | activation of TNF-RE tkLuc (TNF-RE tkLuc) [fold] | effect on extract-stimulated ERE-tk-Luc expression (human ERβ; FIG. 5, listed as Raloxifene) | reduction of mortality from breast cancer [1] [%] | reduction of the risk of recurrences [1] [%] | reduction of the risk of primary invasive breast cancer [2] [%] |
| --- | --- | --- | --- | --- | --- | --- | --- | --- |
| C[C@]12CC[C@@H]3c4ccc(O)cc4C[C@@H](CCCCCCCCC[S+]([O-])CCCC(F)(F)C(F)(F)F)[C@H]3[C@@H]1CC[C@@H]2O (stereo partly shown) [ICI 182780] | counteracted | attenuated | abolished the repression induced by E2 | 2 | – | – | – | – |
| O=C(c1ccc(OCCN2CCCCC2)cc1)c1c(-c2ccc(O)cc2)sc2cc(O)ccc12 [raloxifene] | counteracted | – | abolished the repression induced by E2 | 2 | attenuated | – | – | – |
| CC/C(=C(\c1ccccc1)c1ccc(OCCN(C)C)cc1)c1ccccc1 [tamoxifen] | – | – | abolished the repression induced by E2 | 2 | – | 22 | 42 | 49 |
